{"source": "paper PMC7767178", "about": "(International Journal of Molecular Sciences, 2020)", "key": {"[1]": {"tested_on": "A. veronii ACCC61732 biofilms", "assay": "Mouse model of catheter-associated biofilm infection, bacteria in catheter", "assay_type": "in vivo, ICR mice", "conditions": "5 μmol/kg peptide or CIP 24 h after catheter implantation, catheters collected after seven days, six mice per group", "method": "Briefly, the catheter was cut into 1 cm segments; each piece was sterilized with 70% ethanol and then dried by air. Bacterial biofilms were developed on the catheter by placing individual segments into tubes containing 1.0 mL of a cell suspension (1 × 10^8 CFU/mL) in TSB. After incubation for 24 h at 37 °C, colonized catheters were recovered aseptically and rinsed with PBS to remove unbound bacteria. ICR female mice (20 ± 5 g) were anesthetized with isoflurane; the flanks were shaved and the skin was cleansed with alcohol. […] The incision was then covered with intact skin and closed with surgical suture line and the skin was disinfected. […] The untreated mice were used as the negative control and the mice with sterile catheter were used as the blank control. The mice were anesthetized and sacrificed after seven days. The catheters in the back of the mice were collected and thoroughly shaken in sterile PBS."}, "[2]": {"tested_on": "A. veronii ACCC61732 biofilm", "assay_type": "cell-based", "conditions": "16× MIC, 24 h, crystal violet", "method": "Mid-log phase A. veronii ACCC61732 cells (1 × 10^8 CFU/mL, 180 µL) were added into the 96-well plates. […] Effects of peptides on biofilms formation was evaluated by the crystal violet staining as previously described. The untreated bacteria were used as the negative control (A) and fresh TSB medium was used as the blank control (A0). The inhibition effect of peptides on early biofilms was determined by the following equation: Biofilms (%) = [(Apeptides − A0)/(A − A0)] × 100."}, "A. veronii ACCC61732": {"tested_on": "A. veronii ACCC61732", "assay": "Organ injury in peritonitis model, histology", "assay_type": "in vivo, mice", "conditions": "peptides 5 μmol/kg, CIP 1 μmol/kg", "method": "Livers, kidneys, spleens, and lungs were removed from mice at 24 h and five days post treatment to evaluate the organ injury. After washing with PBS, the organs were fixed in 4% paraform-aldehyde for 24 h at 4 °C, dehydrated by a graded series of ethanol (75‒95%), and infiltrated with xylene. The organs were then embedded in paraffin wax, sectioned, and stained with hematoxylin and eosin. Finally, the tissue samples were fixed and observed by the light microscope. The CIP-treated mice served as the positive control and the PBS group served as the negative control."}}}
{"compound": "O=C(O)c1cn(C2CC2)c2cc(N3CCNCC3)c(F)cc2c1=O", "note": "[CIP, ciprofloxacin, reference compound]", "values": [{"measurement": "decrease of bacterial cells in the catheter", "setting": "[1]", "result": 28.72, "unit": "%"}, {"measurement": "inhibition of early biofilm", "setting": "[2]", "result": 70.75, "unit": "%"}, {"measurement": "effect on injury of liver, spleen, kidney and lung", "setting": "A. veronii ACCC61732", "result": "weak therapeutic effect"}]}
